Structures are written as SMILES. Where two headings read alike, the source gives them in different places.

The text below walks through data of patent US20240246951A1, “COMPOUND HAVING BIOLOGICAL ACTIVITY SUCH AS ANTIVIRAL ACTIVITY” (NATIONAL CENTER FOR GLOBAL HEALTH AND MEDICINE, priority 2021, published 2024).

The target in series [1] is Mpro/3CL protease of SARS-CoV-2 (Severe acute respiratory syndrome coronavirus 2 (2019-nCoV) (SARS-CoV-2), UniProt P0DTD1). Description: Mpro/3CL protease enzyme inhibitory activity, FRET assay kit. The conditions noted are these: fluorogenic substrate, 25° C. It is filed as biochemical.
Series [2] deals with SARS-CoV-2WK-521. The experiment in a line: microbe, parasite or virus in culture. It is filed as cell-based. To be noted: for times more excellent EC50 value as compared with PF-7321332: ratio of EC50 values; for times more excellent EC99 value as compared with PF-7321332: ratio of EC99 values.
Series [3] can be described thus: Cytotoxicity test, MTT assay. It is filed as cell-based. To be noted: African green monkey, Vero E6 cells. As to the method:
(§1) The cytotoxicity test of the test compounds was conducted using Vero E6 cells. Specifically, Vero E6 cells were inoculated in a 96 well plate to be 1×10^4 cells/well, and cultured under standard culture conditions of 3 days, 37° C., and 5% CO2 together with media supplemented with each test compound of each concentration after serial dilution. Thereafter, the viable cell count of each well was quantified by MTT assay to calculate 50% cytotoxicity concentration (CC50).

Series [4] can be described thus: in vivo. The conditions noted are these: mouse, 2 mg/kg; for half-life: iv; for bioavailability: po, bioavailability (BA).
The test system of series [5] is Vero E6 cells. Description: Cytotoxicity test, MTT assay. To be noted: 3 days. It is filed as cell-based. As to the method: as §1
[6] abbreviates: Severe acute respiratory syndrome coronavirus 2, Vero C1008, 72 h, Vero E6 cells, MOI 0.05, 3 days, read-out: EC50.
The mark [7] stands for this setting: Vero E6 cells, MOI 0.05, 3 days.
Where [8] appears, read: Severe acute respiratory syndrome coronavirus 2, Vero C1008, 72 h, read-out: EC50.

`CC1(C)[C@@H]2[C@@H](C(=O)N[C@@H](C[C@@H]3CCNC3=O)C(=O)c3nc4c(F)cccc4s3)N(C(=O)c3cc4c(F)ccc(F)c4[nH]3)C[C@@H]21` [Compound 243, (1R,2S,5S)-3-(4,7-difluoro-1H-indole-2-carbonyl)-N-((S)-1-(4-fluorobenzo[d]thiazol-2-yl)-1-oxo-3-((S)-2-oxopyrrolidin-3-yl)propan-2-yl)-6,6-dimethyl-3-azabicyclo[3.1.0]hexane-2-carboxamide]: in series [1], the IC50 stood at 800 nM. Also, the EC50 in series [2] (setting [6]) was 750 nM. The same compound gave an EC99 in series [2] (setting [7]) of 9.4 µM. Moreover, in series [3], the CC50 at 3 days was > 100000 nM.
Turning to `COc1ccc(F)c2[nH]c(C(=O)N3C[C@H]4[C@@H]([C@H]3C(=O)N[C@@H](C[C@@H]3CCNC3=O)C(=O)c3nc5c(F)cccc5s3)C4(C)C)cc12` [Compound 244, (1R,2S,5S)-3-(7-fluoro-4-methoxy-1H-indole-2-carbonyl)-N-((S)-1-(4-fluorobenzo[d]thiazol-2-yl)-1-oxo-3-((S)-2-oxopyrrolidin-3-yl)propan-2-yl)-6,6-dimethyl-3-azabicyclo[3.1.0]hexane-2-carboxamide], in series [1], it took 600 nM to reach half-maximal inhibition (IC50). For the same compound, the EC50 in series [2] (setting [6]) is 600 nM. The same compound registered an EC99 in series [2] (setting [7]) of 0.99 µM. In addition, the CC50 at 3 days in series [3] was > 100000 nM.
With `CC(C)(C)[C@H](NC(=O)C(F)(F)F)C(=O)N1C[C@H]2[C@@H]([C@H]1C(=O)N[C@@H](C[C@@H]1CCNC1=O)C(=O)c1nc3c(F)cccc3s1)C2(C)C` [Compound 245, (1R,2S,5S)-3-((S)-3,3-dimethyl-2-(2,2,2-trifluoroacetamido)butanoyl)-N-((S)-1-(4-fluorobenzo[d]thiazol-2-yl)-1-oxo-3-((S)-2-oxopyrrolidin-3-yl)propan-2-yl)-6,6-dimethyl-3-azabicyclo[3.1.0]hexane-2-carboxamide], in series [2], the EC75 amounted to 290 nM, the EC99 was 0.95 µM, the “times more excellent EC50 value as compared with PF-7321332” value was ≥ 20 times and the “times more excellent EC99 value as compared with PF-7321332” value is “about 10 times”. For the same compound, the EC50 in series [2] (setting [8]) is 80 nM. The “suppression of proliferation of SARS-CoV-2” value in series [2] (concentration of 1 μM) is given as “almost completely suppressed”. In series [3], the CC50 at 3 days is > 100000 nM. Further, in series [4], the half-life was ≥ 45 min and the bioavailability was ≥ 31%. Further, in series [4] (same experiment conducted again, mice, 2 mg/kg P.O. vs I.V., calculated from AUC of FIG. 2), the bioavailability is 47.7%.
In series [2] (setting [7]), `CC(C)(C)[C@H](NC(=O)C(F)(F)F)C(=O)N1C[C@H]2[C@@H](C1C(=S)N[C@@H](C[C@@H]1CCNC1=O)C(=O)c1nc3c(F)cccc3s1)C2(C)C` (stereo partly drawn) [Compound 245s, 2,2,2-trifluoro-N-((S)-1-((1R,2S,5S)-2-(((S)-1-(4-fluorobenzo[d]thiazol-2-yl)-1-oxo-3-((S)-2-oxopyrrolidin-3-yl)propan-2-yl)carbamothioyl)-6,6-dimethyl-3-azabicyclo[3.1 0.0]hexan-3-yl)-3,3-dimethyl-1-oxobutan-2-yl)acetamide] registered an EC75 of 550 nM and an EC99 of 0.98 µM. The “times more excellent EC99 value as compared with PF-7321332” value in series [2] is listed as “about 10 times”.
Consider `CC(C)(C)[C@H](NC(=O)C(F)(F)F)C(=O)N1C[C@H]2[C@@H]([C@H]1C(=S)N[C@@H](C[C@@H]1CCNC1=O)C(=O)c1nc3c(F)cccc3s1)C2(C)C` [Compound 245s, 2,2,2-trifluoro-N-((S)-1-((1R,2S,5S)-2-(((S)-1-(4-fluorobenzo[d]thiazol-2-yl)-1-oxo-3-((S)-2-oxopyrrolidin-3-yl)propan-2-yl)carbamothioyl)-6,6-dimethyl-3-azabicyclo[3.1 0.0]hexan-3-yl)-3,3-dimethyl-1-oxobutan-2-yl)acetamide], for which the IC50 in series [1] is 300 nM. Also, in series [2] (setting [6]), the EC50 turned out to be 310 nM. Besides, in series [2], the “times more excellent EC50 value as compared with PF-7321332” value is recorded as ≥ 6 times. The CC50 at 3 days in series [3] is > 100000 nM.
For the compound `CC(C)(C)[C@H](NC(=O)C(F)(F)F)C(=O)N1C[C@H]2[C@@H]([C@H]1C(=O)N[C@@H](C[C@@H]1CCNC1=O)C(=O)c1nc3c(F)ccc(F)c3s1)C2(C)C` [Compound 247], the EC99 in series [2] is <1.0 µM. Besides, the EC50 in series [2] (read-out: EC50) is < 200 nM. Besides, in series [5], the CC50 is > 100000 nM.
For `CC(C)(C)[C@H](NC(=O)C(F)(F)F)C(=O)N1C[C@H]2[C@@H]([C@H]1C(=S)N[C@@H](C[C@@H]1CCNC1=O)C(=O)c1nc3c(F)ccc(F)c3s1)C2(C)C` [Compound 247s] the same measures were <1.0 µM, < 300 nM and > 100000 nM.
As for `CC1(C)[C@@H]2[C@@H](C(=O)N[C@@H](C[C@@H]3CCNC3=O)C(=O)c3nc4c(F)cccc4s3)N(C(=O)[C@H](CC(F)(F)F)NC(=O)C(F)(F)F)C[C@@H]21` [Compound 248], in series [2], the EC99 was <1.0 µM. In addition, the EC50 in series [2] (read-out: EC50) is < 200 nM. In addition, the CC50 in series [5] was > 100000 nM.
The matching figures for `CC1(C)[C@@H]2[C@@H](C(=S)N[C@@H](C[C@@H]3CCNC3=O)C(=O)c3nc4c(F)cccc4s3)N(C(=O)[C@H](CC(F)(F)F)NC(=O)C(F)(F)F)C[C@@H]21` [Compound 248s]: <1.0 µM, < 300 nM and > 100000 nM.
For `CC1(C)[C@@H]2[C@@H](C(=O)N[C@@H](C[C@@H]3CCNC3=O)C(=O)c3nc4c(F)cccc4s3)N(C(=O)[C@H](CCC(F)(F)F)NC(=O)C(F)(F)F)C[C@@H]21` [Compound 249] the same measures were <1.0 µM, < 200 nM and > 100000 nM.
The matching figures for `CC1(C)[C@@H]2[C@@H](C(=S)N[C@@H](C[C@@H]3CCNC3=O)C(=O)c3nc4c(F)cccc4s3)N(C(=O)[C@H](CCC(F)(F)F)NC(=O)C(F)(F)F)C[C@@H]21` [Compound 249s]: <1.0 µM, < 300 nM and > 100000 nM.
As for `CC(C)(F)[C@H](NC(=O)C(F)(F)F)C(=O)N1C[C@H]2[C@@H]([C@H]1C(=O)N[C@@H](C[C@@H]1CCNC1=O)C(=O)c1nc3c(F)cccc3s1)C2(C)C` [Compound 250], the EC99 in series [2] is <1.0 µM. Besides, the EC50 in series [2] (read-out: EC50) is < 200 nM. Besides, the CC50 in series [5] was > 100000 nM.
For the compound `CC(C)(F)[C@H](NC(=O)C(F)(F)F)C(=O)N1C[C@H]2[C@@H]([C@H]1C(=S)N[C@@H](C[C@@H]1CCNC1=O)C(=O)c1nc3c(F)cccc3s1)C2(C)C` [Compound 250s], the EC99 in series [2] was <1.0 µM. The EC50 in series [2] (read-out: EC50) was < 300 nM. In addition, the CC50 in series [5] is > 100000 nM.
As for `CC(C)(F)[C@H](NC(=O)C(F)(F)F)C(=O)N1C[C@H]2[C@@H]([C@H]1C(=O)N[C@@H](C[C@@H]1CCNC1=O)C(=O)c1nc3c(F)ccc(F)c3s1)C2(C)C` [Compound 251], the EC99 in series [2] was <1.0 µM. Moreover, in series [2] (read-out: EC50), the EC50 was < 200 nM. The CC50 in series [5] was > 100000 nM.
The matching figures for `CC(C)(F)[C@H](NC(=O)C(F)(F)F)C(=O)N1C[C@H]2[C@@H]([C@H]1C(=S)N[C@@H](C[C@@H]1CCNC1=O)C(=O)c1nc3c(F)ccc(F)c3s1)C2(C)C` [Compound 251s]: <1.0 µM, < 300 nM and > 100000 nM.
As for `CC(C)(C)[C@H](NC(=O)C(F)(F)F)C(=O)N1C[C@H]2[C@@H]([C@H]1C(=O)N[C@@H](C[C@@H]1CCNC1=O)C(=O)c1nc3cc(F)ccc3s1)C2(C)C` [Compound 272, (1R,2S,5S)-3-((S)-3,3-dimethyl-2-(2,2,2-trifluoroacetamido)butanoyl)-N-((S)-1-(5-fluorobenzo[d]thiazol-2-yl)-1-oxo-3-((S)-2-oxopyrrolidin-3-yl)propan-2-yl)-6,6-dimethyl-3-azabicyclo[3.1.0]hexane-2-carboxamide], in series [2] (setting [8]), the EC50 was 8 nM. In series [3], the half-maximal cytotoxic concentration (CC50) at 3 days is > 80000 nM. The compound further gave a bioavailability in series [4] of 99.3%.
As to `CC(C)(C)[C@H](NC(=O)C(F)(F)F)C(=O)N1C[C@H]2[C@@H]([C@H]1C(=O)N[C@@H](C[C@@H]1CCNC1=O)C(=O)c1nc3ccc(F)cc3s1)C2(C)C` [Compound 273, (1R,2S,5S)-3-((S)-3,3-dimethyl-2-(2,2,2-trifluoroacetamido)butanoyl)-N-((S)-1-(6-fluorobenzo[d]thiazol-2-yl)-1-oxo-3-((S)-2-oxopyrrolidin-3-yl)propan-2-yl)-6,6-dimethyl-3-azabicyclo[3.1.0]hexane-2-carboxamide], the EC50 in series [2] (setting [8]) was 52 nM. Further, the CC50 at 3 days in series [3] was > 80000 nM.
Turning to `COc1cccc2[nH]c(C(=O)N[C@@H](CC(C)C)C(=O)N[C@@H](C[C@@H]3CCNC3=O)C(=O)c3nc4ccccc4s3)cc12` [Compound 2420, reference compound], in series [2] (Severe acute respiratory syndrome coronavirus 2, Vero C1008, 72 h), the EC50 fell in the range of 2700 to 3200 nM. Moreover, the half-life in series [4] was ~10 min.
As for `CC(C)(C)[C@H](NC(=O)C(F)(F)F)C(=O)N1C[C@H]2[C@@H]([C@H]1C(=O)N[C@H](C#N)C[C@@H]1CCNC1=O)C2(C)C` [PF-7321332, reference compound], in series [2] (setting [6]), the EC50 stood at 1900 nM. In series [2] (setting [7]), this compound returned an EC75 of 4390 nM and an EC99 of 9.68 µM. Besides, in series [3], the 50% cytotoxic concentration (CC50) at 3 days is > 100000 nM.

The IC50 is the point on the concentration scale where inhibition reaches its midpoint. Read a low IC50 as inhibition by little substance. The EC50 is the concentration giving half of the maximal effect. By EC99 is commonly meant the concentration needed for an effect of 99%. The CC50 is the concentration at which the toxic effect on the cells reaches its halfway point. Read a low CC50 as harm at low concentration. In general, EC75 refers to the point of the concentration-response curve where the effect stands at 75%. The low end stands for an effect from little substance, the high end for a need for much substance. The half-life is how long it takes for the measured level to halve. The term bioavailability denotes dose-corrected exposure relative to a reference, in per cent.
